Test [1] has as its target DGKζ (Homo sapiens (Human), UniProt Q13574). Briefly: Biochemical DGK IC50 assay, DGKζ ADP-Glo assay. Particulars: 0.5 nM enzyme, 140 μM ATP, 80 μM DAG; read-out: DGKζ ADP-Glo assay IC50. How it is done:
(§1) Enzymatic reactions of DGKζ, DGKα and DGKδ were performed using ADP-Glo assay with lipid micelle substrate. […] Full length DGKα (D21-10BG, SignalChem) and full length DGKδ (D23-10G, SignalChem) were purchased. Lipid micelle was prepared by dissolving DAG (Sigma, 317505-10MG) and PS (Sigma, P7769-100MG) with chloroform which was furtherly removed by rotary evaporation. The resulted product was resuspended in buffer containing 25 mM HEPES pH 7.0, 0.5 mM EDTA and 160 mM Octyl β-D glucopyranoside by vigorous mixing and ultrasonic (IID, Scientz).
(§2) The ranges of compounds final concentration were 1.55˜10000 nM or 23.3˜150000 nM. 3 μL 2× enzyme solution was added to wells.
Human His-TEV-DGK-zeta-pFastBac1 and human baculovirus samples was generated using the Bac-to-Bac baculovirus expression system (Invitrogen) according to the manufacturer's protocol. The DNA used for expression of DGK-zeta, have SEQ ID Nos: 1. Baculovirus amplification was achieved using infected SF9 cells at 1:2000 virus/cells ratios, and grown for 96 hours at 27° C. post-transfected.
The expression scaled up for each protein was carried out in the […] from CORNING. 4 L of 3×10^6 cells/mL Sf9 cells (Expression System, Invitrogen) grown in SF900™ II SFM insect medium (Expression System) was infected with virus stock at 1:200 virus/cells ratio, and grown for 48 hours at 27° C. post-transfection. The infected cell culture was harvested by centrifugation at 6000 rpm for 15 min 4° C. in a SORVALL LYNX6000 centrifuge. The cell pellets were stored at −80° C.
Full length human DGKζ produced as described above, was purified from Sf9 baculovirus-infected insect cell paste. The cells were lysed using sonication method, and the lysates were clarified by centrifugation.

Test [2] deals with DGKα (Homo sapiens (Human), UniProt P23743). Briefly: Biochemical DGK IC50 assay, DGKα ADP-Glo assay. Particulars: 7.5 nM enzyme, 140 μM ATP, 80 μM DAG. On the procedure: as §1, §2
Sequence of DGKα (P23743 whole entry): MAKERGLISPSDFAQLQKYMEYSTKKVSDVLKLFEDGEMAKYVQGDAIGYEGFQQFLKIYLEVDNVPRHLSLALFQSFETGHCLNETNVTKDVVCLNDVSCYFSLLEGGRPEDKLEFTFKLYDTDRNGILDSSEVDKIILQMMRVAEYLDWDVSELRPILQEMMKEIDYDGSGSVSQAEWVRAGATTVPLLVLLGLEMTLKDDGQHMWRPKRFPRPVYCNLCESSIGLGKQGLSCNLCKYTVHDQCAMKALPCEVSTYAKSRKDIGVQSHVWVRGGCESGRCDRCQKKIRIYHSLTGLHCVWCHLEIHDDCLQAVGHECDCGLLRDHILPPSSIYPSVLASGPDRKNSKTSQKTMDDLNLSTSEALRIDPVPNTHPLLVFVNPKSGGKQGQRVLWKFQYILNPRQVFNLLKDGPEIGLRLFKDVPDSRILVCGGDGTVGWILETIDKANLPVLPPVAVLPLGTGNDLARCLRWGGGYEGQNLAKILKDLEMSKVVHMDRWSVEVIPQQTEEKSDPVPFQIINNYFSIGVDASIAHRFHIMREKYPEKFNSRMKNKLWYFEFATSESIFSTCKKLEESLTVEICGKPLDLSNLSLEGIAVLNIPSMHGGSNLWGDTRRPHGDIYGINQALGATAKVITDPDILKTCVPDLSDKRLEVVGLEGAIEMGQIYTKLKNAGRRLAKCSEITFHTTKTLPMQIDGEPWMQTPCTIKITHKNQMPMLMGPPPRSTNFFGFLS

Sequence of DGKζ (Q13574 other isoform, or with tags, fused parts or gaps): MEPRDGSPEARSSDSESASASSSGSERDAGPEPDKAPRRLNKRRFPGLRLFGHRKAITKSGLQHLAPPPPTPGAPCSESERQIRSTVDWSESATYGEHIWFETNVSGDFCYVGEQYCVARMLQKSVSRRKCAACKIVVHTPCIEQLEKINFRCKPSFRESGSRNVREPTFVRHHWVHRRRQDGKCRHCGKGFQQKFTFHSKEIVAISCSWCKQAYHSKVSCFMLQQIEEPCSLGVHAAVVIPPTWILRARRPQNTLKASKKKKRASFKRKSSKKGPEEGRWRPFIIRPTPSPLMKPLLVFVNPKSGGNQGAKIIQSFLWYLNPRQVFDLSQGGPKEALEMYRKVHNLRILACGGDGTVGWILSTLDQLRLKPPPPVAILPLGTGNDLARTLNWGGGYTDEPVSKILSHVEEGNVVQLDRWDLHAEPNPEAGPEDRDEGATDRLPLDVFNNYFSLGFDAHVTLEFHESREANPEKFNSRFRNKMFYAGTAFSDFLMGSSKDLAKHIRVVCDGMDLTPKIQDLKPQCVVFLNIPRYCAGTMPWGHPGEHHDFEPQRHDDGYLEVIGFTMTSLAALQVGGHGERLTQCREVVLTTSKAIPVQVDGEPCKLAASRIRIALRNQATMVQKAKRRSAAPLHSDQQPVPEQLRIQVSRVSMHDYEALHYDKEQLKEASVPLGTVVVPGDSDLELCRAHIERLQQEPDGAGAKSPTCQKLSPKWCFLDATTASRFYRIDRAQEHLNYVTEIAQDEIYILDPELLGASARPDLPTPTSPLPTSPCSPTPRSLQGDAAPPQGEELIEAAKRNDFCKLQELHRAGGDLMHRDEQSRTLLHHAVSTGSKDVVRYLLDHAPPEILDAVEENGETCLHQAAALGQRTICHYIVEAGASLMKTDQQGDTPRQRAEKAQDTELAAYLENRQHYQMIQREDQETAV

What is called IC50 is the concentration that gives 50% inhibition. For the molecule `CC[C@@H]1CN(c2nc(=O)[nH]c3cn(CC#N)nc23)[C@@H](C)CN1C(C)c1ccc2nccnc2c1` (single isomer, unassigned) [Compound A183b], the figures for the IC50 in test [1] and in test [2] were 2080 nM and > 10000 nM, respectively.

Consider `CC[C@H]1CN(C(C)c2cc(C(F)(F)F)nn2CC)[C@H](CC)CN1c1cc(=O)n(C)c2cn(CC#N)nc12` (stereo partly shown) [Compound A210], for which the IC50 in test [1] came out at 369 nM; in test [2] it was 11200 nM.

As for `CC[C@@H]1CN(c2c(C#N)c(=O)[nH]c3cn(CC#N)nc23)[C@@H](C)CN1C(C)c1ccc2nccnc2c1` (single isomer, unassigned) [Compound A200b], the IC50 in test [1] was 5380 nM; in test [2] it was > 10000 nM.

In the case of `CC(c1ccc2nccnc2c1)N1C[C@H](C)N(c2cc(=O)n(C)c3cn(C(CC#N)C4CCCC4)nc23)C[C@H]1C` (stereo partly drawn) [Compound A20, 3-cyclopentyl-3-(7-((2S,5R)-2,5-dimethyl-4-(1-(quinoxalin-6-yl)ethyl)piperazin-1-yl)-4-methyl-5-oxo-4,5-dihydro-2H-pyrazolo[4,3-b]pyridin-2-yl)propanenitrile], the results for the concentration for half-maximal inhibition (IC50) in test [1] and in test [2] were 39000 nM and > 150000 nM, respectively.

Turning to `CC[C@@H]1CN(c2cc(=O)n(C)c3cn(CC#N)nc23)[C@@H](C)CN1C(C)c1ccc(C(F)(F)F)cc1F` (single isomer, unassigned) [Compound A202a], the IC50 stood at 176 nM in test [1] and 700 nM in test [2].

With `CC[C@H]1CN(C(C)c2ccc3ccccc3n2)[C@H](CC)CN1c1cc(=O)n(C)c2cn(CC#N)nc12` (stereo partly shown) [Compound A57], the values for the IC50 in test [1] and in test [2] were 50 nM and 114 nM, respectively.

For `CC[C@H]1CN(C(C)c2ccc(C)cc2)[C@H](CC)CN1c1cc(=O)n(C)c2cn(CC#N)nc12` (stereo partly drawn) [Compound A127, 2-(7-((2S,5R)-2,5-diethyl-4-(1-(p-tolyl)ethyl)piperazin-1-yl)-4-methyl-5-oxo-4,5-dihydro-2H-pyrazolo[4,3-b]pyridin-2-yl)acetonitrile], the IC50 is 260 nM in test [1] and 56 nM in test [2].

For the molecule `CCOc1cc(F)ccc1C(C)N1C[C@H](CC)N(c2cc(=O)n(C)c3cn(CC#N)nc23)C[C@H]1CC` (stereo partly shown) [Compound A141], the IC50 was 696 nM in test [1] and 6630 nM in test [2].

On to `Cc1cnc2ccc([C@H](C)N3C[C@H](C)N(c4cc(=O)[nH]c5cn(CC#N)nc45)C[C@H]3C)cc2n1` [Compound A308], for which the IC50 in test [1] stood at 72 nM; in test [2] it was 88300 nM.

On to `CC[C@H]1CN(C(C)c2ccc3cnccc3c2)[C@H](CC)CN1c1cc(=O)n(C)c2cn(CC#N)nc12` (stereo partly shown) [Compound A48], for which the IC50 in test [1] was 73 nM; in test [2], 75 nM.

Take `CCC(c1ccc(F)cc1C(F)(F)F)N1C[C@H](C)N(c2cc(=O)n(C)c3cn(CC#N)nc23)C[C@H]1C` (stereo partly shown) [Compound A256]: the IC50 in test [1] is 315 nM; in test [2], > 10000 nM.

Take `CC[C@@H]1CN(c2cc(=O)n(C)c3cn(CC#N)nc23)CCN1C(C)c1ccc2nccnc2c1` (single isomer, unassigned) [Compound A161b]: the IC50 in test [1] turned out to be 93 nM; in test [2], 78200 nM.

`Cc1nc2ccc(C(C)N3C[C@H](C)N(c4cc(=O)n(C)c5cn(CC#N)nc45)C[C@H]3C)cc2nc1C` (stereo partly drawn) [Compound A294, 2-(7-((2S,5R)-4-(1-(2,3-dimethylquinoxalin-6-yl)ethyl)-2,5-dimethylpiperazin-1-yl)-4-methyl-5-oxo-4,5-dihydro-2H-pyrazolo[4,3-b]pyridin-2-yl)acetonitrile]: the half-inhibitory concentration (IC50) in test [1] came to 3860 nM; in test [2], 69600 nM.

In the case of `CC[C@H]1CN(C(C)c2ccc(F)cc2C#N)[C@H](CC)CN1c1cc(=O)n(C)c2cn(CC#N)nc12` (single isomer, unassigned) [Compound A224a], the results for the IC50 in test [1] and in test [2] were 122 nM and 1090 nM, respectively.

These data come from patent US20240270751A1, “Pyrazolopyridinone Compounds” (BeiGene Ltd., priority 2021, published 2024).
